Values of other authors, collected in paper PMC3745299 (Journal of medicinal chemistry, 2013).
Where two headings read alike, the source gives them in different places.

What was measured:
[1] = system: human pregnane X receptor (hPXR); conditions: below 100 μM
[2] = system: Mycobacterium tuberculosis
[3] = system: Cyp450; conditions: dog
[4] = system: Cyp450; conditions: rat

CO[C@H]1/C=C/O[C@@]2(C)Oc3c(C)c(O)c4c(=O)c(c5oc6cc(N7CCN(CC(C)C)CC7)cc(O)c6nc-5c4c3C2=O)NC(=O)/C(C)=C\C=C\[C@H](C)[C@H](O)[C@@H](C)[C@@H](O)[C@@H](C)[C@H](OC(C)=O)[C@@H]1C [bxRIF2a, rifalazil]
hPXR activation in vitro [1]: essentially no hPXR activation | MIC90 [2]: < 4 nM | Cyp450 induction activity [3]: dramatically reduced | Cyp450 induction activity [4]: dramatically reduced
